According to publication PMC6704710, “Preclinical evaluation of 3D185, a novel potent inhibitor of FGFR1/2/3 and CSF-1R, in FGFR-dependent and macrophage-dominant cancer models” (Journal of Experimental & Clinical Cancer Research : CR, 2019):

Experiments:
Experiment in all cases: Eurofins kinase panel
Assay type in all cases: biochemical
Conditions in all cases: read-out: Inhibition rate (%)
ACTR2(h) = biological target: T1, ACTR2(h) (Homo sapiens, UniProt P27037)
T1 construct: purchased Eurofins (KinaseProfiler)

ALK6(h) = biological target: T2, ALK6(h) (Homo sapiens, UniProt O00238)
T2 construct: purchased Eurofins (KinaseProfiler)

Arg(h) = biological target: T3, Arg(h) (Homo sapiens, UniProt P42684)
T3 construct: purchased Eurofins (KinaseProfiler)

EphB3(h) = biological target: T4, EphB3(h) (Homo sapiens, UniProt P54753)
T4 construct: purchased Eurofins (KinaseProfiler)
T4 sequence (P54753 34-998): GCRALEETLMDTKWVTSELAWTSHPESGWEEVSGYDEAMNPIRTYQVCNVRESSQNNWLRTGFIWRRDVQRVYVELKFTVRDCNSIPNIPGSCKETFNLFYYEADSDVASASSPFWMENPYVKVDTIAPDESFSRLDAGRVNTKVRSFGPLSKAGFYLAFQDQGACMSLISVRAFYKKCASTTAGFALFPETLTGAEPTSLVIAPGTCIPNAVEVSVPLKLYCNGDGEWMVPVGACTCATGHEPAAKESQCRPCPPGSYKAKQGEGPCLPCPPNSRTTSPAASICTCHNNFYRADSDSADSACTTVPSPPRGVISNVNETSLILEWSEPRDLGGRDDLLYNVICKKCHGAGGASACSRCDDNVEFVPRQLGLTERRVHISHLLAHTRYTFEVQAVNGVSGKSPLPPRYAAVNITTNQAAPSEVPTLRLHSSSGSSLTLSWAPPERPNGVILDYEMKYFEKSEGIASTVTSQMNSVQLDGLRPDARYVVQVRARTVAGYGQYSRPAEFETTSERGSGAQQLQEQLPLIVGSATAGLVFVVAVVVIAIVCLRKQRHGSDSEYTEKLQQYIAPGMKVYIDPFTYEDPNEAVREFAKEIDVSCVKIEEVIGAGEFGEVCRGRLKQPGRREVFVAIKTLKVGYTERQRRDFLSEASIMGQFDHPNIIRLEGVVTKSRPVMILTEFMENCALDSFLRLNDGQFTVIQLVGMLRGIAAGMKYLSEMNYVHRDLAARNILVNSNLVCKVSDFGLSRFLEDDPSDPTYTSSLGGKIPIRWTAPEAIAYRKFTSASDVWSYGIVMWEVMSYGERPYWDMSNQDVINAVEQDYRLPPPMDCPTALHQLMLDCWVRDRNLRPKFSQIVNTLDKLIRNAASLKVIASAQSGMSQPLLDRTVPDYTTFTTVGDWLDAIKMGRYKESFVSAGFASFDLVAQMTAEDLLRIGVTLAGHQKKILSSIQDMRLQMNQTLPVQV

Fer(h) = biological target: T5, Fer(h) (Homo sapiens, UniProt P16591)
T5 construct: purchased Eurofins (KinaseProfiler)

Fgr(h) = biological target: T6, Fgr(h) (Homo sapiens, UniProt P09769)
T6 construct: purchased Eurofins (KinaseProfiler)

GRK7(h) = biological target: T7, GRK7(h) (Homo sapiens, UniProt Q8WTQ7)
T7 construct: purchased Eurofins (KinaseProfiler)
T7 sequence (Q8WTQ7 1-553): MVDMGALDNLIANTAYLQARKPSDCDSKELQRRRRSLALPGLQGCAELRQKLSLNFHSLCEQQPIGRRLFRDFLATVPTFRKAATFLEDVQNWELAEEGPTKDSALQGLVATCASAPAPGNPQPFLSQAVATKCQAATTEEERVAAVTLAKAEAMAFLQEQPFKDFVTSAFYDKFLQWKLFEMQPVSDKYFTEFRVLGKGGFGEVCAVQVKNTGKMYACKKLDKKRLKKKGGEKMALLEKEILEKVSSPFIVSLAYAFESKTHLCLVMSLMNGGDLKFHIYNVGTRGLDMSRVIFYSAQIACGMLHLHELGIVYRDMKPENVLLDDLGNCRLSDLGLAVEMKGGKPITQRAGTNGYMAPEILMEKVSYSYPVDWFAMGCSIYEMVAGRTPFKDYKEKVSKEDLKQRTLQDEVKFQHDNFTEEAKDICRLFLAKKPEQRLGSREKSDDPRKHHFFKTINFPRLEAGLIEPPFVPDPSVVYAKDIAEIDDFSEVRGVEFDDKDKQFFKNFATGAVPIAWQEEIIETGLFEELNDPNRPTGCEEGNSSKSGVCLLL

NDR2(h) = biological target: T8, NDR2(h) (Homo sapiens, UniProt Q9Y2H1)
T8 construct: purchased Eurofins (KinaseProfiler)

PDGFRβ(h) = biological target: T9, PDGFRβ(h) (Homo sapiens, UniProt P09619)
T9 construct: purchased Eurofins (KinaseProfiler)
T9 sequence (P09619 33-1106): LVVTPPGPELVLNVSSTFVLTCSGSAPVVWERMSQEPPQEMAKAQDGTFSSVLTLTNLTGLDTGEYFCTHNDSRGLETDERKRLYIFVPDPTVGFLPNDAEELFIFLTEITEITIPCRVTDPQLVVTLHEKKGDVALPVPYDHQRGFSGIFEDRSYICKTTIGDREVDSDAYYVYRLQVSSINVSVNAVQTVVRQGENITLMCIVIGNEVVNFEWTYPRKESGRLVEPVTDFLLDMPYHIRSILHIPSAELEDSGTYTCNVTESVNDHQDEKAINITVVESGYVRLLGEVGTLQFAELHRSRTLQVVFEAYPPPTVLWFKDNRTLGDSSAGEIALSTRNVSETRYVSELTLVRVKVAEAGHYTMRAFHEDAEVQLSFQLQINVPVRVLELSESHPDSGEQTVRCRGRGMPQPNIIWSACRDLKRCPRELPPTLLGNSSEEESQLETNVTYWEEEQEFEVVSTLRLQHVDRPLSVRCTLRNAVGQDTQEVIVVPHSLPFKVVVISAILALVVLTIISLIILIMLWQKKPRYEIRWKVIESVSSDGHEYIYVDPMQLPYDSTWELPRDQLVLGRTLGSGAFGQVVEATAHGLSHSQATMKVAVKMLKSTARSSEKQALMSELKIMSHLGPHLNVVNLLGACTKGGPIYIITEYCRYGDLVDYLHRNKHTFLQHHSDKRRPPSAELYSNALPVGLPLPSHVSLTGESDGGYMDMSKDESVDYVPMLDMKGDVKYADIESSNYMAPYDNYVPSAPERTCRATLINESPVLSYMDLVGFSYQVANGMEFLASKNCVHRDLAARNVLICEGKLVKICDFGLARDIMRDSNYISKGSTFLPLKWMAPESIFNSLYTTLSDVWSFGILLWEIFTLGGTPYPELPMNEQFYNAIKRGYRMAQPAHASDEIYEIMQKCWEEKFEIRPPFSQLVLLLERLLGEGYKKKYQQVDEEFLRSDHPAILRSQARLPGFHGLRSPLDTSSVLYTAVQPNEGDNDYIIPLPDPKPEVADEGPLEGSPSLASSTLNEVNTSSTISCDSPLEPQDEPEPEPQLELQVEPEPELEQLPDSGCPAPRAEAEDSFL

T6 sequence (P09769 whole entry): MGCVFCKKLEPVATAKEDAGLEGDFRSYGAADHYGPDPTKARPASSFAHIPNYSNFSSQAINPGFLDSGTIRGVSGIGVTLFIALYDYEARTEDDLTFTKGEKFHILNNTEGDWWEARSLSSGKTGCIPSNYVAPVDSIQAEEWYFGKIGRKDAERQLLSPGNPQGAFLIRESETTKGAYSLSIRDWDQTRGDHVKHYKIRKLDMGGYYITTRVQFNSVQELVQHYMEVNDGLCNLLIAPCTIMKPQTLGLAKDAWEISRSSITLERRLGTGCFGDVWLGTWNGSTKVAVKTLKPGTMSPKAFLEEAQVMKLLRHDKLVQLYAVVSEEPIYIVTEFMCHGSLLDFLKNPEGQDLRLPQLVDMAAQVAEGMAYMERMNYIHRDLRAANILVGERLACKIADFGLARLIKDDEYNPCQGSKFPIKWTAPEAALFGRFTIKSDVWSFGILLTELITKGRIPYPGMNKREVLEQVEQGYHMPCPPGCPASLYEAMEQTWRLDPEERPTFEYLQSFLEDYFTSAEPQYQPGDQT
T5 sequence (P16591 whole entry): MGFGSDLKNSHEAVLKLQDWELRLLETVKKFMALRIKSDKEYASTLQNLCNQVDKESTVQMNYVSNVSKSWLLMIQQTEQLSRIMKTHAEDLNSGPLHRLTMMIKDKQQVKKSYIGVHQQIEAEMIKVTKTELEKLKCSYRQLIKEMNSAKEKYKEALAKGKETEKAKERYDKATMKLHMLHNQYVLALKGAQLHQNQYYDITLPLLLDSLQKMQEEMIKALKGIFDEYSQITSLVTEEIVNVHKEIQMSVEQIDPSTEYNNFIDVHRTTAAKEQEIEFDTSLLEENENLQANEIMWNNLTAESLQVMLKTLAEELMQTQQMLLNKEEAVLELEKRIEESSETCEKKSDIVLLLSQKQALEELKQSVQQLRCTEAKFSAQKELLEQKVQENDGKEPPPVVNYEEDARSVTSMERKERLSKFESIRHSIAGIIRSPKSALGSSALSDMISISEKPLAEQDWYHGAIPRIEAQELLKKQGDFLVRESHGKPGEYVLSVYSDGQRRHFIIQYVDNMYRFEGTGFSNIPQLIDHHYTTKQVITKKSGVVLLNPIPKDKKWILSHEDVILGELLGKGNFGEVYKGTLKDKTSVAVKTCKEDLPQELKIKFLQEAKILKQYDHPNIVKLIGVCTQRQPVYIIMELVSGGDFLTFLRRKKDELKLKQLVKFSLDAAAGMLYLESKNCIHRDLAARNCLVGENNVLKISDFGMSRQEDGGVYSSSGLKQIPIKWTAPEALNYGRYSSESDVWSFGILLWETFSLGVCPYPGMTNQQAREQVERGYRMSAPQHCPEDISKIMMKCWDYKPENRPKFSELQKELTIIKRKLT
T2 sequence (O00238 14-502): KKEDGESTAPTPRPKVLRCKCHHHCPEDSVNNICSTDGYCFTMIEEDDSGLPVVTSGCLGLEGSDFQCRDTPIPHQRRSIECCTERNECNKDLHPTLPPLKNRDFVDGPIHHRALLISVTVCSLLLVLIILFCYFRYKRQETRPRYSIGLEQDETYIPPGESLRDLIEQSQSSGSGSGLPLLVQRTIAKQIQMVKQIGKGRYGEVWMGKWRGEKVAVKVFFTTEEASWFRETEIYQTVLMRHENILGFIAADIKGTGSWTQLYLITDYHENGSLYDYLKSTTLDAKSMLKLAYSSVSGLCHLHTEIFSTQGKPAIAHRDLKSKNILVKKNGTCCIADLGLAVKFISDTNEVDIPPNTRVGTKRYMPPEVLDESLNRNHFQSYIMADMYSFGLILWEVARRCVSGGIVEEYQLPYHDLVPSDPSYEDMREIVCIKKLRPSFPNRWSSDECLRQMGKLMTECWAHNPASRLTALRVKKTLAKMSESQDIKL
T3 sequence (P42684 whole entry): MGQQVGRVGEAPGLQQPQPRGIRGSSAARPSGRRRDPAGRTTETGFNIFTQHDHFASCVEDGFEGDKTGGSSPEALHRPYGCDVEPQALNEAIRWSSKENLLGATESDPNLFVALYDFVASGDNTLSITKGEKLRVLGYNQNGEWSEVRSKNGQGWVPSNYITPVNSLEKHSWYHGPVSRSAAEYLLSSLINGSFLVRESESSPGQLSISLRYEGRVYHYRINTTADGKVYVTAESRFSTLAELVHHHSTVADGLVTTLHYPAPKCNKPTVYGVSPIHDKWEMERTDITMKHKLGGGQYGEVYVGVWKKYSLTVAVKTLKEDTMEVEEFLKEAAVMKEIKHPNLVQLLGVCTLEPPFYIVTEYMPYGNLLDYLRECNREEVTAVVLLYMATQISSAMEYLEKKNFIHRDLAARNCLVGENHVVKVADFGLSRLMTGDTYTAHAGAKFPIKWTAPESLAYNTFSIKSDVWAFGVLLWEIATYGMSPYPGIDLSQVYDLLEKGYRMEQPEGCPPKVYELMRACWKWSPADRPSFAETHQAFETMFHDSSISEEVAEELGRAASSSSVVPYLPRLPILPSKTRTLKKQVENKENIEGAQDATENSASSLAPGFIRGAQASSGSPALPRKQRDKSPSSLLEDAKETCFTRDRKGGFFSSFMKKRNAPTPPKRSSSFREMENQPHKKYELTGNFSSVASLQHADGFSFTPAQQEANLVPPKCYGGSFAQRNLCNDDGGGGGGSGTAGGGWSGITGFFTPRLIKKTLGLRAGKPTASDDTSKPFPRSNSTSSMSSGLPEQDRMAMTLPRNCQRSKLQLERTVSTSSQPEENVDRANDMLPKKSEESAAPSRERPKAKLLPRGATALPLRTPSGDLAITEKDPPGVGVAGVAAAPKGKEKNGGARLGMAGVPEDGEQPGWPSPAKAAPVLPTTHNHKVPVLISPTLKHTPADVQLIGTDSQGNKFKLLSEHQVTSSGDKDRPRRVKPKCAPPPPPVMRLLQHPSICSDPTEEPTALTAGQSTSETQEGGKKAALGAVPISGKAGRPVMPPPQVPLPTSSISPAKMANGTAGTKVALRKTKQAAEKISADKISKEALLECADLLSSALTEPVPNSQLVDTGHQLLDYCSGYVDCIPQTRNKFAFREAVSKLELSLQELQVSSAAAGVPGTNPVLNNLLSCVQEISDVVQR
T1 sequence (P27037 20-513): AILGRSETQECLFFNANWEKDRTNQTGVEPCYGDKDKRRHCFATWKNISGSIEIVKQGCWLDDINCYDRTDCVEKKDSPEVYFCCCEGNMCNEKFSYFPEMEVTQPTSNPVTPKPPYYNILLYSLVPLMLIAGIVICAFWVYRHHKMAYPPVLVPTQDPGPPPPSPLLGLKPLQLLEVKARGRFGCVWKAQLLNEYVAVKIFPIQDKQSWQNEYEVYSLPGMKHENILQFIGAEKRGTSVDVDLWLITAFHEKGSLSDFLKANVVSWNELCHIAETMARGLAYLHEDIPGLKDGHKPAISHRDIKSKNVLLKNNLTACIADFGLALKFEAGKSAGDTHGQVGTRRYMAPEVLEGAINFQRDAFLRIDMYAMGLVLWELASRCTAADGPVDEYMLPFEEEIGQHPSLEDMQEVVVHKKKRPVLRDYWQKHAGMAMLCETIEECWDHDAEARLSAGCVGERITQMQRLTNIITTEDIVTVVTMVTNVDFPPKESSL
T8 sequence (Q9Y2H1 whole entry): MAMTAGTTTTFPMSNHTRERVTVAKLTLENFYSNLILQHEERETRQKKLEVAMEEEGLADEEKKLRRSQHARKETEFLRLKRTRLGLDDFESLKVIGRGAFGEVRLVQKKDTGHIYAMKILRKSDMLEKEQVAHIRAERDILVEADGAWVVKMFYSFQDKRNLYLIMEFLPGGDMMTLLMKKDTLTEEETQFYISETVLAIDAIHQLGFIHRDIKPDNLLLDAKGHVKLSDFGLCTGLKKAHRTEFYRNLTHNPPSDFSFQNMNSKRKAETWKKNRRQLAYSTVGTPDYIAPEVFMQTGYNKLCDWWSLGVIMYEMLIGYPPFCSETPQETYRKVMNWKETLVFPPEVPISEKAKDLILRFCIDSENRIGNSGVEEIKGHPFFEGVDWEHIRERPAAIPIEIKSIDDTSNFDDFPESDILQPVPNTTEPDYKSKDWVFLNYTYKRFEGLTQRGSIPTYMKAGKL

COc1cc(OC)c(Cl)c(-c2ccc3c(NC(=O)c4ccc(N5CCNC(C)(C)C5)cc4)n[nH]c3n2)c1Cl [3D185] gave an inhibition at 0.01 µM (ACTR2(h); 10 nM) of 0%, an inhibition at 0.1 µM (ACTR2(h); 100 nM) of -1% and an inhibition at 1 µM (ACTR2(h); 1000 nM) of 1%. It also gave an inhibition at 0.01 µM (ALK6(h); 10 nM) of 3%, an inhibition at 0.1 µM (ALK6(h); 100 nM) of -11% and an inhibition at 1 µM (ALK6(h); 1000 nM) of -5%. It also gave an inhibition at 0.01 µM (Arg(h); 10 nM) of 2%, an inhibition at 0.1 µM (Arg(h); 100 nM) of 36% and an inhibition at 1 µM (Arg(h); 1000 nM) of 87%. For the same molecule, the inhibition at 0.01 µM (EphB3(h); 10 nM) was 13%, the inhibition at 0.1 µM (EphB3(h); 100 nM) was 1% and the inhibition at 1 µM (EphB3(h); 1000 nM) was 5%. It also gave an inhibition at 0.01 µM (Fer(h); 10 nM) of -11%, an inhibition at 0.1 µM (Fer(h); 100 nM) of 0% and an inhibition at 1 µM (Fer(h); 1000 nM) of 42%. For the same molecule, the inhibition at 0.01 µM (Fgr(h); 10 nM) was 11%, the inhibition at 0.1 µM (Fgr(h); 100 nM) was 44% and the inhibition at 1 µM (Fgr(h); 1000 nM) was 89%. For the same molecule, the inhibition at 0.01 µM (GRK7(h); 10 nM) was 9%, the inhibition at 0.1 µM (GRK7(h); 100 nM) was 16% and the inhibition at 1 µM (GRK7(h); 1000 nM) was 27%. The inhibition at 0.01 µM (NDR2(h); 10 nM) was 2%, the inhibition at 0.1 µM (NDR2(h); 100 nM) was -8% and the inhibition at 1 µM (NDR2(h); 1000 nM) was 1%. For the same molecule, the inhibition at 0.01 µM (PDGFRβ(h); 10 nM) was 1%, the inhibition at 0.1 µM (PDGFRβ(h); 100 nM) was -1% and the inhibition at 1 µM (PDGFRβ(h); 1000 nM) was 17%.
